The text below walks through data of patent US9994546B2, “Cyclopropylamines as LSD1 inhibitors” (Incyte Corporation, priority 2014, dated 2018).

The structures appear in SMILES notation. Bounds are passed on as bounds.

This experiment concerns the target LSD-1 enzyme (Homo sapiens (Human), UniProt O60341). The experiment can be described thus: LANCE LSD1/KDM1A demethylase assay (LSD1 histone demethylase biochemical assay). As to conditions: 1 nM LSD-1 enzyme, 1 hour preincubation at 25° C., 0.4 μM biotin-labeled Histone H3 peptide substrate. The protocol:
LANCE LSD1/KDM1A demethylase assay—10 μL of 1 nM LSD-1 enzyme (ENZO BML-SE544-0050) in the assay buffer (50 mM Tris, pH 7.5, 0.01% Tween-20, 25 mM NaCl, 5 mM DTT) were preincubated for 1 hour at 25° C. with 0.8 μL compound/DMSO dotted in black 384 well polystyrene plates. […] After stopping the reactions plates were incubated for 30 minutes and read on a PHERAstar FS plate reader (BMG Labtech).
In general terms: In TR-FRET formats the signal depends on donor and acceptor labels being close together.
In general, IC50 refers to the point on the concentration scale where inhibition reaches its midpoint. A higher IC50 goes with lower potency. As for `N#CCC1(N2CCC(N[C@@H]3C[C@H]3c3ccccc3)CC2)CN(C(=O)c2ccccc2)C1` (relative stereo) [Example 7, (1-Benzoyl-3-{4-[(trans-2-phenylcyclopropyl)amino]piperidin-1-yl}azetidin-3-yl)acetonitrile], the IC50 was not above 100 nM. For `N#CCC1(N2CCC(N[C@@H]3C[C@H]3c3ccccc3)CC2)CN([C@H]2CC[C@H](O)CC2)C1` [Example 72, [1-(trans-4-hydroxycyclohexyl)-3-(4-{[(1R,2S)-2-phenylcyclopropyl]amino}piperidin-1-yl)azetidin-3-yl]acetonitrile] the value was not above 100 nM; for `COC(=O)N1CC(CC#N)(N2CCC(CN[C@@H]3C[C@H]3c3ccccc3)CC2)C1` (relative stereo) [Example 41, Methyl 3-(cyanomethyl)-3-(4-{[(trans-2-phenylcyclopropyl)amino]methyl}piperidin-1-yl)azetidine-1-carboxylate], not above 100 nM. The figure for `CNC(=O)CC1(N2CCC(N[C@@H]3C[C@H]3c3ccccc3)CC2)CCC1` [Example 69, N-methyl-2-[1-(4-{[(1R,2S)-2-phenylcyclopropyl]amino}piperidin-1-yl)cyclobutyl]acetamide] is not above 100 nM; for `O=C(O)CC1(N2CCC(CN[C@@H]3C[C@H]3c3ccccc3)CC2)CNC1` (relative stereo) [Example 50, [3-(4-{[(trans-2-Phenylcyclopropyl)amino]methyl}piperidin-1-yl)azetidin-3-yl]acetic acid] it is not above 100 nM.

`N#CCC1(N2CCC(CN[C@@H]3C[C@H]3c3ccccc3)CC2)CN(c2cccc(Cl)c2C#N)C1` (relative stereo) [Example 38, 2-Chloro-6-[3-(cyanomethyl)-3-(4-{[(trans-2-phenylcyclopropyl)amino]methyl}piperidin-1-yl)azetidin-1-yl]benzonitrile] yielded an IC50 not above 100 nM. In turn, `N#CCC1(N2CCC(N[C@@H]3C[C@H]3c3ccccc3)CC2)CN(C(=O)Cc2ccccn2)C1` [Example 118, [3-(4-{[(1R,2S)-2-phenylcyclopropyl]amino}piperidin-1-yl)-1-(pyridin-2-ylacetyl)azetidin-3-yl]acetonitrile] displayed an IC50 not above 100 nM.

As for `CS(=O)(=O)N1CC(CCO)(N2CCC(N[C@@H]3C[C@H]3c3ccccc3)CC2)C1` [Example 93, 2-[1-(methylsulfonyl)-3-(4-{[(1R,2S)-2-phenylcyclopropyl]amino}piperidin-1-yl)azetidin-3-yl]ethanol], the IC50 is not above 100 nM. With `N#CCC1(N2CCC(N[C@@H]3C[C@H]3c3ccccc3)CC2)CN(c2ncccc2C#N)C1` (relative stereo) [Example 10, 2-(3-(Cyanomethyl)-3-{4-[(trans-2-phenylcyclopropyl)amino]piperidin-1-yl}azetidin-1-yl)nicotinonitrile], the IC50 is not above 100 nM. Compound `CN1CCC(CC#N)(N2CC(CN[C@@H]3C[C@H]3c3ccccc3)C2)CC1` (relative stereo) [Example 17, [1-Methyl-4-(3-{[(trans-2-phenylcyclopropyl)amino]methyl}azetidin-1-yl)piperidin-4-yl]acetonitrile] yielded an IC50 not above 100 nM. As to `CC1(CN[C@@H]2C[C@H]2c2ccccc2)CCN(C2(CC(=O)O)CCC2)CC1` [Example 55, {1-[4-methyl-4-({[(1R,2S)-2-phenylcyclopropyl]amino}methyl)piperidin-1-yl]cyclobutyl}acetic acid], the IC50 was not above 100 nM.

`N#CCC1(N2CCC(N[C@@H]3C[C@H]3c3ccccc3)CC2)CN(C(=O)N2CC(O)C2)C1` [Example 89, [1-[(3-hydroxyazetidin-1-yl)carbonyl]-3-(4-{[(1R,2S)-2-phenylcyclopropyl]amino}piperidin-1-yl)azetidin-3-yl]acetonitrile]: the IC50 was not above 100 nM.

Compound `N#CCC1(N2CCC(N[C@@H]3C[C@H]3c3ccccc3)CC2)CN(C(=O)C2(O)CC2)C1` [Example 84, [1-[(1-hydroxycyclopropyl)carbonyl]-3-(4-{[(1R,2S)-2-phenylcyclopropyl]amino}piperidin-1-yl)azetidin-3-yl]acetonitrile] came in with an IC50 not above 100 nM. In turn, `O=C(O)CC1(N2CCC(N[C@@H]3C[C@H]3c3ccccc3)CC2)CN(Cc2cncnc2)C1` [Example 126, [3-(4-{[(1R,2S)-2-phenylcyclopropyl]amino}piperidin-1-yl)-1-(pyrimidin-5-ylmethyl)azetidin-3-yl]acetic acid] had an IC50 not above 100 nM. For the compound `N#CCC1(N2CCC(CN[C@@H]3C[C@H]3c3ccccc3)CC2)CN(C(=O)c2ccccc2)C1` (relative stereo) [Example 45, [1-Benzoyl-3-(4-{[(trans-2-phenylcyclopropyl)amino]methyl}piperidin-1-yl)azetidin-3-yl]acetonitrile], the IC50 is not above 100 nM. As for `CCS(=O)(=O)N1CC(CC#N)(N2CCC(N[C@@H]3C[C@H]3c3ccccc3)CC2)C1` [Example 62, [1-(ethylsulfonyl)-3-(4-{[(1R,2S)-2-phenylcyclopropyl]amino}piperidin-1-yl)azetidin-3-yl]acetonitrile], the IC50 was not above 100 nM. The figure for `O=C(O)CC1(N2CCC(N[C@@H]3C[C@H]3c3ccccc3)CC2)CN(Cc2ncccn2)C1` [Example 125, [3-(4-{[(1R,2S)-2-phenylcyclopropyl]amino}piperidin-1-yl)-1-(pyrimidin-2-ylmethyl)azetidin-3-yl]acetic acid] is not above 100 nM; for `CCS(=O)(=O)N1CC(CC(=O)N(C)C)(N2CCC(N[C@@H]3C[C@H]3c3ccccc3)CC2)C1` [Example 70, 2-[1-(ethylsulfonyl)-3-(4-{[(1R,2S)-2-phenylcyclopropyl]amino}piperidin-1-yl)azetidin-3-yl]-N,N-dimethylacetamide] it is not above 100 nM. The figure for `N#CCC1(N2CCC(N[C@@H]3C[C@H]3c3ccccc3)CC2)CN(C(=O)c2cscn2)C1` [Example 119, [3-(4-{[(1R,2S)-2-phenylcyclopropyl]amino}piperidin-1-yl)-1-(1,3-thiazol-4-ylcarbonyl)azetidin-3-yl]acetonitrile] is not above 100 nM.

`N#CCC1(N2CCC(N[C@@H]3C[C@H]3c3ccccc3)CC2)CN(C(=O)c2nccs2)C1` [Example 120, [3-(4-{[(1R,2S)-2-phenylcyclopropyl]amino}piperidin-1-yl)-1-(1,3-thiazol-2-ylcarbonyl)azetidin-3-yl]acetonitrile] registered an IC50 not above 100 nM. The figure for `CN1CC(CC(=O)O)(N2CCC(N[C@@H]3C[C@H]3c3ccccc3)CC2)C1` [Example 66, [1-methyl-3-(4-{[(1R,2S)-2-phenylcyclopropyl]amino}piperidin-1-yl)azetidin-3-yl]acetic acid] is not above 100 nM; for `N#CCC1(N2CCC(N[C@@H]3C[C@H]3c3ccccc3)CC2)CN(c2ccc(C(=O)O)cc2C#N)C1` (relative stereo) [Example 11, 3-Cyano-4-(3-(cyanomethyl)-3-{4-[(trans-2-phenylcyclopropyl)amino]piperidin-1-yl}azetidin-1-yl)benzoic acid] it is 100 to 500 nM; for `N#CCC1(N2CCC(N[C@@H]3C[C@H]3c3ccccc3)CC2)CN(c2ccc(C#N)cc2)C1` (relative stereo) [Example 13, 4-(3-(Cyanomethyl)-3-{4-[(trans-2-phenylcyclopropyl)amino]piperidin-1-yl}azetidin-1-yl)benzonitrile] it is not above 100 nM.
